pIC50: −log10 of the molar value.
How the values were obtained:
[1] = tested on: SD rats; assay: Toxicity test of a 7-day repeatedly intragastric administration in SD rats; format: in vivo; conditions: 7 days; for tolerance compared with GDC-0077: SD rats, 10, 30 and 60 mg/kg once/day
Source text: (§1) • Test compound 1: GDC-0077 • Test compound 2: the compounds of Example 22 and Example 62 3.2.2 Vehicle • Name: 20% aqueousSBE-β-CD (Captisol) solution 3.2.3 Animal Information • Species & strains: Sprague-Dawley (SD) rat • Animal grade: SPF grade • Number and sex of animals: 160 rats, half male and half female. 3.2.4 Instruments • The ADVIA®2120 series Hematology System with Autoslide was used for blood cell counting; • The SYSMEX CA-500 Coagulation Analyzer was used for the detection of coagulation function indicators; • The TBA-120FR Automated Biochemical Analyzer was used for the detection of blood biochemical indicators; • The Easylyte Electrolyte Analyzer was used for the detection of electrolytes; • The liquid mass spectrometry detector model API4000; • The electron spray ionization (ESI) positive ion mode and column type Agilent ZORBAX XDB-C18 (3.5 μm, 2.1×50 mm) were used for bioanalytical detection of plasma samples. 3.3 Experimental Method • 1) In the experiment, 160 rats (80 rats/sex) were divided into 20 groups according to their sex and body weight, wherein 100 rats were used for toxicology study (groups 1 to 10, 5 rats/sex/group) and 60 rats were used for toxicokinetic study (groups 11 to 20, 3 rats/sex/group); • 2) As the vehicle control group, the animals in groups 1 and 11 were intragastrically administered 20% aqueous SBE-β-CD (Captisol) solution; • 3) The animals in groups 2 and 12, groups 3 and 13, and groups 4 and 14 were intragastrically administered 10, 30 and 60 mg/kg of GDC-0077, respectively; • 4) The animals in groups 5 and 15, groups 6 and 16, and groups 7 and 17 were intragastrically administered 10, 30 and 60 mg/kg of the compound of Example 22, respectively; • 5) The animals in groups 8 and 18, groups 9 and 19, groups 10 and 20 were intragastrically administered 10, 30 and 60 mg/kg of the compound of Example 62, respectively; • 5) The animals were administered once a day for 7 consecutive days (the animals in groups 7, 17, 10 and 20 were administered for 6 consecutive days). • 6) The administration volume was 10 mL/kg. • 7) During the experiment, items such as clinical observation, body weight, food intake, clinicopathological indicators (blood cell count, coagulation function, blood biochemistry), toxicokinetics and the like were studied. • 8) All animals were euthanized on Day 8 (the animals in groups 7, 10, 17 and 20 were euthanized after administration on Day 6). • 9) During the experiment, gross anatomical observation was performed on the animals in groups 1 to 10, animals in groups 17 and 20, and dead animals (including animals in toxicological study). Histopathological examination was performed on abnormal tissues, gastrointestinal tissues (such as colon, cecum) and immune tissues (such as thymus). […]

[2] = Toxicokinetics in the 7-day repeated intragastric administration study in SD rats; format: in vivo, Sprague-Dawley (SD) rat
Source text: as §1

[3] = Pharmacokinetic (PK) assay in mice, single intragastric administration; format: in vivo; conditions: mouse, po, Balb/c male mice, 5 mg/kg, plasma; for AUC(0-t): read-out: Area under the curve AUC0-t; for AUC(0-inf): read-out: Area under the curve AUC0-∞; for half-life: read-out: Half life t1/2 (converted); for MRT: read-out: Mean residence time MRT; for Tmax: read-out: Peak time tmax; for Cmax: read-out: Plasma concentration Cmax
Experimental: The pharmacokinetic assay of the preferred compounds of the examples of the present invention in mice was carried out in Balb/c male mice (Shanghai Jiesijie Laboratory Animal Co., Ltd.).
5.1 Administration route: single intragastric administration.
5.2 Administration dose: 5 mg/10 ml/kg (body weight).
5.3 Formulation: the compound was dissolved in 0.5% CMC-Na by ultrasound to obtain a clear solution or a homogeneous suspension.
5.4 Sampling points: 0.5, 1, 2, 4, 6, 8 and 24 hours after administration.
• 1) 0.1 mL of orbital blood was collected and placed in a K2-EDTA test tube, centrifuged at 1000 to 3000×g at room temperature for 5 to 20 min to separate the plasma, which was then stored at −80° C. • 2) 160 uL of acetonitrile was added to 40 uL of plasma sample for precipitation. After mixing, the sample was centrifuged at 500 to 2000×g for 5 to 20 minutes. • 3) 100 uL of the supernatant after processing was taken and analyzed by LC/MS/MS assay to determine the concentrations of the example compound. 5.6 LC-MS/MS Assay: • Liquid chromatography condition: Shimadzu LC-20AD pump • Mass spectrometry condition: AB Sciex API 4000 mass spectrometer • Chromatographic column: phenomenex Gemiu 5 μm C18 50×4.6 mm • Mobile phase: solution A was 0.1% aqueous formic acid solution, and solution B was acetonitrile • Flow rate: 0.8 mL/min • Elution time: 0 to 4 minutes, gradient elution 5.7 Pharmacokinetics: […]

[4] = target: T1, PI3Kα (Homo sapiens, UniProt P42336); assay: ADP-Glo Lipid Kinase Assay, PI3Kα kinase activity; format: biochemical
T1 construct: purchased Promega #V1721
T1 sequence (P42336 whole entry): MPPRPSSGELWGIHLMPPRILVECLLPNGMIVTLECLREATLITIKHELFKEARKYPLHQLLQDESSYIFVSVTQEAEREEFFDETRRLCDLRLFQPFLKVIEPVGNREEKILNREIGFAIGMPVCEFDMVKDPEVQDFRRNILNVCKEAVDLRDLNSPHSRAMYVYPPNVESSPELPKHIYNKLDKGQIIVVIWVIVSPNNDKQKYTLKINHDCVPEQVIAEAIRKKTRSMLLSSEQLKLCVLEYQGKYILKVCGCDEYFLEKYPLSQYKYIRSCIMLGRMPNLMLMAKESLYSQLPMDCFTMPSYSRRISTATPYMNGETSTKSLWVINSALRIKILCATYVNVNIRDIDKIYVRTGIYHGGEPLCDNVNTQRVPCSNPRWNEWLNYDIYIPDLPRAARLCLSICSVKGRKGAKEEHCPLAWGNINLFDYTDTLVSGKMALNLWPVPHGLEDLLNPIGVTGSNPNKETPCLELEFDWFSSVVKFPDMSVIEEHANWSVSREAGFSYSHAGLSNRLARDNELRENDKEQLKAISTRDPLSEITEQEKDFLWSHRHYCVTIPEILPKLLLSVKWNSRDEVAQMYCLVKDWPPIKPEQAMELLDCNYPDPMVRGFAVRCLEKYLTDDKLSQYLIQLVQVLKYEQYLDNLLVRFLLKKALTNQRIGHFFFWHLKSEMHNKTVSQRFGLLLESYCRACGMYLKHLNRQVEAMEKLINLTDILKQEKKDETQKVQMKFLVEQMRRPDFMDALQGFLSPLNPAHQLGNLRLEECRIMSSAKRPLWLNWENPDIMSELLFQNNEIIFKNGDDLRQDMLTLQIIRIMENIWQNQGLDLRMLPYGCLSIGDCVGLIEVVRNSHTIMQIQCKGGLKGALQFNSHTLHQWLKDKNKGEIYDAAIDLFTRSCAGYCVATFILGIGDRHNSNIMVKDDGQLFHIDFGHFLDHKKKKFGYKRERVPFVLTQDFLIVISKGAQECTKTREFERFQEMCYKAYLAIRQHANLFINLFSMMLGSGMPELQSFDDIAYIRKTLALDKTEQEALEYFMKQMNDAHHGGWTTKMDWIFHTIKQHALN
T1 sequence (P27986 whole entry partner): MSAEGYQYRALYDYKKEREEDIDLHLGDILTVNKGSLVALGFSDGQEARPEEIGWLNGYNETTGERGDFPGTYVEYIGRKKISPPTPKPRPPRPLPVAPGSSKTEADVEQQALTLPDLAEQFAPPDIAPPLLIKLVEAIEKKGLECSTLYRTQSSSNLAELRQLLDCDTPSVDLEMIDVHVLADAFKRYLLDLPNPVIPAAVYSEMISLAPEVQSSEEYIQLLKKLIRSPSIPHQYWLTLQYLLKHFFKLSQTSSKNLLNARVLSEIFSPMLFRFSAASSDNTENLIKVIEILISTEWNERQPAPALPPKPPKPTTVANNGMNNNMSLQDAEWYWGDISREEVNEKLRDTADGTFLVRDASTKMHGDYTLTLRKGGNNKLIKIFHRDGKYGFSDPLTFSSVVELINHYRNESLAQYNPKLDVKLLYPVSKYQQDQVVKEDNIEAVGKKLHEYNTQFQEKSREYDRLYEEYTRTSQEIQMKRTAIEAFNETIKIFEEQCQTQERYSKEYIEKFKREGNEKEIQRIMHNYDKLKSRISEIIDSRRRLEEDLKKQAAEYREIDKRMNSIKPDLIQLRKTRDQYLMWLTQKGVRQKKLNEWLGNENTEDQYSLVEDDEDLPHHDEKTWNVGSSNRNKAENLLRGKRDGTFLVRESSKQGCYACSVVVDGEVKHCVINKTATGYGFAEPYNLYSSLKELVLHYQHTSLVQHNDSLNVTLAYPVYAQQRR
Experimental: In this experiment, ADP-Glo Lipid Kinase Assay (Promega #V9102) from Promega was used. The lipid kinases PI3Kα/β/γ/δ catalyzed the ATP-to-ADP reaction in the presence of the substrate PIP2:3PS and ATP. The lipid kinase activity was characterized by measuring the ADP content in the reaction, and the half inhibition concentrations IC50 of the compounds on PI3Kα/β/γ/δ kinase activity were obtained.
Kinase reactions were carried out in white 384-well plates (Perkin Elmer #6007299). 2 μL of the compound of various concentrations diluted with ddH2O containing 1% DMSO was added to each well, and 2 μL of ddH2O containing 1% DMSO was added to positive control wells. […] After the reaction was carried out for 20 minutes at room temperature in the dark, the chemiluminescence was measured by BioTek Synergy H1 microplate reader.
The percentage inhibition data of the compound-treated well was calculated from positive control wells (DMSO control wells) and negative control wells (no kinase added) on the plate {% inhibition=100−[(test compound value−negative control value)]/(positive control value-negative control value)×100}. IC50 values were calculated using GraphPad prism and using a four-parameter nonlinear logistic formula to fit the data of different concentrations and corresponding percent inhibition.

[5] = doses of 10, 30 and 60 mg/kg once/day

Row | Structure (SMILES) | tolerance compared with GDC-0077 [1] | lethal dose ([1]; SD rats, intragastric once/day) [mg/kg] | systemic exposure compared with GDC-0077 at the same dose [2] | Cmax and AUC(0-24 h) compared with GDC-0077 ([2]; dose of 30 mg/kg) | Cmax and AUC(0-24 h) compared with GDC-0077 [2, 5] | AUC(0-t) [3] [ng·h/mL] | AUC(0-inf) [3] [ng·h/mL] | half-life [3] [h] | MRT [3] [h] | Tmax [3] [h] | Cmax [3] [ng/mL] | pIC50 [4]
1 | C[C@H](Nc1ccc2c(c1)OCCn1cc(N3C(=O)SC[C@H]3C(F)F)nc1-2)C(N)=O [Example 22, (S)-2-((2-((R)-4-(difluoromethyl)-2-oxothiazolidin-3-yl)-5,6-dihydrobenzo[f]imidazo[1,2-d][1,4]oxazepin-9-yl)amino)propionamide] | better than that of GDC-0077 | 60 | significantly higher than that of GDC-0077 | significantly higher than those of GDC-0077 | significantly higher than those of GDC-0077 | – | – | – | – | – | – | –
2 | C[C@H](Nc1ccc2c(c1)SCCn1cc(N3C(=O)OC[C@H]3C(F)F)nc1-2)C(N)=O [Example 62, (S)-2-((2-((S)-4-(difluoromethyl)-2-oxooxazolidin-3-yl)-5,6-dihydrobenzo[f]imidazo[1,2-d][1,4]thiazepin-9-yl)amino)propionamide] | better than that of GDC-0077 | – | – | – | significantly higher than those of GDC-0077 | 3440 | 3470 | 1.5 | 2.8 | 0.5 | 1250 | 10.00
3 | C[C@H](Nc1ccc2c(c1)N(C)CCn1cc(N3C(=O)OC[C@H]3C(F)F)nc1-2)C(N)=O [Example 56, (S)-2-((2-((S)-4-(difluoromethyl)-2-oxooxazolidin-3-yl)-7-methyl-6,7-dihydro-5H-benzo[f]imidazo[1,2-d][1,4]diazoheptin-9-yl)amino)propionamide] | – | – | – | – | – | 1350 | 1360 | 1.6 | 2.2 | 0.5 | 985 | 9.30
